System: C3H mice
Assay: Telogen Conversion Assay
Format: in vivo
Details: for Average Grades: average of 7 mice, visual grade 0 (pink skin) to 4 (full anagen), topical; for hair regrowth (regrowth score, FIG. 1): applied daily, week 3 and week 4, at the appropriate dose-level, compared to the control group; for hair growth (average grade): grades of 7 mice after 23 days, example written in present tense
Protocol: FP receptor antagonists are tested for their potential to […] using the Telogen Conversion Assay. The Telogen Conversion Assay measures the potential of a FP receptor antagonist to inhibit the conversion of mice in the resting stage of the hair growth cycle (“telogen”), to the growth stage of the hair growth cycle (“anagen”), and to assess the rate of anagen growth.
Without intending to be limited by theory, there are three principal phases of the hair growth cycle: anagen, catagen, and telogen. It is believed that there is a longer telogen period in C3H mice (Harlan Sprague Dawley, Inc., Indianapolis, Ind.) from approximately 40 days of age until about 75 days of age, when hair growth is synchronized. It is believed that after 75 days of age, hair growth is no longer synchronized. Wherein about 40 day-old mice with dark fur (brown or black) are used in hair growth experiments, melanogenesis occurs along with hair (fur) growth wherein the topical application of hair growth inducers is evaluated. The Telogen Conversion Assay herein is used to screen FP receptor antagonists for potential hair growth by measuring melanogenesis and/or inhibition of expected hair growth.
Three groups of 44 day-old C3H mice are used: a vehicle control group, a positive control group, and a test FP receptor antagonist group, wherein the test FP receptor antagonist group is administered a FP receptor antagonist F used in the method of this invention. The length of the assay is typically 24 days with 15 treatment days (wherein the treatment days occur Mondays through Fridays). Day 1 is the first day of treatment. Typical dosage concentrations are set forth in Table 1, however the skilled artisan will readily understand that such concentrations may be modified.
The mice are treated topically Monday through Friday on their lower back (base of tail to the lower rib). A pipette and tip are used to deliver 400 μl to each mouse's back. The 400 μL application is applied slowly while moving hair on the mouse to allow the application to reach the skin.
While each treatment is being applied to the mouse topically, a visual grade of from 0 to 4 will be given to the skin color in the application area of each animal. As a mouse converts from telogen to anagen, its skin color will become more bluish-black.

Molecule	Average Grades (23 Days)	Average Grades (25 Days)	Average Grades (26 Days)	hair regrowth (regrowth score, FIG. 1)	hair growth (average grade)
O=C(O)CCC/C=C\CC1C(/C=C/[C@H](O)C2Cc3ccccc3C2)[C@@H](F)C[C@@H]1O (stereo partly drawn) [Example 1]	0.4	0.1	0.7		
COC(=O)CCC/C=C\CC1C(/C=C/[C@H](O)C2Cc3ccccc3C2)[C@@H](F)C[C@@H]1O (stereo partly drawn) [Example 2]	0.1			inhibited hair regrowth	
O=C(N[C@H](c1ccccc1)c1ccccn1)[C@@H]1SCCN1S(=O)(=O)c1ccc(-c2ccccc2)cc1 [Example 3]				inhibited hair regrowth	significantly reduces hair growth
CC(C)OC(=O)CCC/C=C\CC1C(/C=C/[C@H](O)C2Cc3ccccc3C2)[C@@H](F)C[C@@H]1O (stereo partly drawn) [Example 4]					significantly reduces hair growth
Ile-Leu-Gly-His-(citrulline)-Asp-Tyr-Lys [Example 5]					significantly reduces hair growth

From patent US10159634B2, “Compositions and methods for inhibiting hair growth” (priority 2009, dated 2018)
